# Measured values: patent publication US10723741B1, “DNA polymerase IIIC inhibitors and use thereof” (Acurx Pharmaceuticals, LLC, priority 2018, dated 2020)
# Counter-ions that a name gives are not always drawn. Like-named read-outs stand apart in the source and are kept apart here.
# Columns and labels:
# Type in all cases: cell-based
# [1] = tested on: Staphylococcus aureus NRS384 (MRSA); experiment: Broth microdilution MIC, S. aureus NRS384 (MRSA); settings: Staphylococcus aureus
# Procedure, shortened: (§1)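 Two-fold dilutions from 64 to 0.0625 μg/ml final, 1% DMSO, were inoculated at ~5.0×10^5 cfu/ml in the strain's test medium and kept 20 h at 37 °C in ambient atmosphere. Colonies were grown on MHA, with S. pneumoniae on blood agar under 5% CO2.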
# [2] = tested on: Escherichia coli ATCC 25922; experiment: Broth microdilution MIC, E. coli ATCC 25922 (MHIIB w & w/o 4 mM EDTA); settings: for MIC: Escherichia coli, read-out: MIC E. coli ATCC 25922; for MIC E. coli ATCC 25922 + 4 mM EDTA: with 4 mM EDTA
# Procedure, shortened: as §1
# [3] = tested on: Bacillus subtilis ATCC 6633; experiment: Broth microdilution MIC, B. subtilis ATCC 6633; settings: read-out: MIC B. subtilis ATCC 6633
# Procedure, shortened: as §1
# [4] = tested on: Staphylococcus aureus ATCC 29213 (MSSA); experiment: Broth microdilution MIC, S. aureus ATCC 29213 (MSSA); settings: read-out: MIC S. aureus ATCC 29213 (MSSA)
# Procedure, shortened: as §1
# [5] = tested on: Enterococcus faecium ATCC 700221 (VRE); experiment: Broth microdilution MIC, E. faecium ATCC 700221 (VRE); design: MIC E. faecium ATCC 700221 (VRE): unit: ug/mL; settings: for MIC: Enterococcus faecium
# Procedure, shortened: as §1
# [6] = tested on: Streptococcus pneumoniae ATCC 49619; experiment: Broth microdilution MIC, S. pneumoniae ATCC 49619; settings: read-out: MIC S. pneumoniae ATCC 49619
# Procedure, shortened: as §1
# [7] = tested on: Enterococcus faecalis ATCC 29212; experiment: Broth microdilution MIC, E. faecalis ATCC 29212; settings: read-out: MIC E. faecalis ATCC 29212
# Procedure, shortened: as §1
# [8] = broth microdilution, 37° C., 20 hours
# [9] = broth microdilution, 37° C., 20 hours, read-out: MIC NRS 384 (MRSA)
# [10] = ATCC25922, without EDTA, broth microdilution, 37° C., 20 hours
# [11] = ATCC6633, broth microdilution, 37° C., 20 hours
# [12] = broth microdilution, 37° C., 20 hours, read-out: MIC E. faecium ATCC 700221 (VRE)
# [13] = ATCC49619, broth microdilution, 37° C., 20 hours
# [14] = ATCC29212, broth microdilution, 37° C., 20 hours
Compound,"MIC E. coli ATCC 25922 + 4 mM EDTA [2, 8]","MIC [1, 9] [µg/mL]","MIC [2, 10] [µg/mL]","MIC [3, 11] [µg/mL]","MIC [4, 8] [µg/mL]","MIC [5, 12] [µg/mL]","MIC [6, 13] [µg/mL]","MIC [7, 14] [µg/mL]","MIC ([1]; S. aureus NRS 384, broth microdilution, 37° C., 20 hours, read-out: MIC NRS 384 (MRSA)) [µg/mL]","MIC E. faecium ATCC 700221 (VRE) [5, 8]","MIC ([1]; broth microdilution, MHIIB, 37° C., 20 hours, read-out: MIC against S. aureus NRS 384 (MRSA)) [µg/mL]","MIC ([5]; broth microdilution, MHIIB, 37° C., 20 hours, read-out: MIC against E. faecium ATCC 700221 (VRE)) [µg/mL]","MIC ([1]; 20 h, read-out: MIC NRS 384 (MRSA)) [µg/mL]","MIC ([2]; ATCC25922, 20 h) [µg/mL]","MIC ([3]; ATCC6633, 20 h) [µg/mL]",MIC ([4]; 20 h) [µg/mL],"MIC ([5]; 20 h, read-out: MIC E. faecium ATCC 700221 (VRE)) [µg/mL]","MIC ([6]; ATCC49619, 20 h) [µg/mL]","MIC ([7]; ATCC29212, 20 h) [µg/mL]"
"CN1CCC(n2ncc3nc(NCc4ccc(Cl)c(Cl)c4)[nH]c(=O)c32)C1 (stereo not drawn) [Compound 243, 5-((3,4-Dichlorobenzyl)amino)-1-(1-methylpyrrolidin-3-yl)-1H-pyrazolo[4,3-d]pyrimidin-7(6H)-one TFA salt]",32 µg/mL,,,,,,,,,,,,8,> 64,4,8,4,4,8
"O=c1[nH]c(NCc2ccc(Cl)c(Cl)c2)nc2cnn(CCCCO)c12 [Compound 89, 5-((3,4-Dichlorobenzyl)amino)-1-(4-hydroxybutyl)-1H-pyrazolo[4,3-d]pyrimidin-7(6H)-one]",64 µg/mL,2,> 64,1,4,1,2,4,,,,,,,,,,,
"Cn1ncc2nc(NCc3ncc[nH]3)[nH]c(=O)c21 [Compound 22, 5-(((1H-imidazol-2-yl)methyl)amino)-1-methyl-1H-pyrazolo[4,3-d]pyrimidin-7(6H)-one]",>64 µg/mL,> 64,> 64,> 64,> 64,> 64,> 64,> 64,,,,,,,,,,,
"Cl.O=c1[nH]c(NCc2ccc(Cl)c(Cl)c2)nc2cnn(CCN3C[C@@H]4C[C@H]3CO4)c12 [Compound 68, 1-(2-((1 S,4S)-2-oxa-5-azabicyclo[2.2.1]heptan-5-yl)ethyl)-5-((3,4-dichlorobenzyl)amino)-1H-pyrazolo[4,3-d]pyrimidin-7(6H)-one hydrochloride]",64 µg/mL,4,> 64,1,4,,4,4,,4/2,,,,,,,,,
"Cn1ncc2nc(NCCc3ccc(Cl)c(Cl)c3)[nH]c(=O)c21 [Compound 8, 5-((3,4-Dichlorophenethyl)amino)-1-methyl-1H-pyrazolo[4,3-d]pyrimidin-7(6H)-one]",>64 µg/mL,> 64,> 64,> 64,> 64,> 64,> 64,> 64,,,,,,,,,,,
"CCOCCc1nn(C)c2c(=O)[nH]c(NCc3ccc(Cl)c(Cl)c3)nc12 [Compound 49, 5-((3,4-dichlorobenzyl)amino)-3-(2-ethoxyethyl)-1-methyl-1H-pyrazolo[4,3-d]pyrimidin-7(6H)-one]",>64 µg/mL,8,> 64,8,16,16,16,> 64,,,,,,,,,,,
"Cc1cc(CNc2nc3cnn(C)c3c(=O)[nH]2)ccc1Cl [Compound 35, 5-((4-Chloro-3-methylbenzyl)amino)-1-methyl-1H-pyrazolo[4,3-d]pyrimidin-7(6H)-one]",>64 µg/mL,2,> 64,2,4,4,4,8,,,,,,,,,,,

# More lines, main results first:
"MIC E. coli ATCC 25922 + 4 mM EDTA [2, 8]","MIC [1, 9] [µg/mL]","MIC [2, 10] [µg/mL]","MIC [3, 11] [µg/mL]","MIC [4, 8] [µg/mL]","MIC [5, 12] [µg/mL]","MIC [6, 13] [µg/mL]","MIC [7, 14] [µg/mL]","MIC ([1]; S. aureus NRS 384, broth microdilution, 37° C., 20 hours, read-out: MIC NRS 384 (MRSA)) [µg/mL]","MIC E. faecium ATCC 700221 (VRE) [5, 8]","MIC ([1]; broth microdilution, MHIIB, 37° C., 20 hours, read-out: MIC against S. aureus NRS 384 (MRSA)) [µg/mL]","MIC ([5]; broth microdilution, MHIIB, 37° C., 20 hours, read-out: MIC against E. faecium ATCC 700221 (VRE)) [µg/mL]",Compound,"MIC ([1]; 20 h, read-out: MIC NRS 384 (MRSA)) [µg/mL]","MIC ([2]; ATCC25922, 20 h) [µg/mL]","MIC ([3]; ATCC6633, 20 h) [µg/mL]",MIC ([4]; 20 h) [µg/mL],"MIC ([5]; 20 h, read-out: MIC E. faecium ATCC 700221 (VRE)) [µg/mL]","MIC ([6]; ATCC49619, 20 h) [µg/mL]","MIC ([7]; ATCC29212, 20 h) [µg/mL]"
>64. ug/ml,32,> 64,64,32,16,16,32,,,,,"O=C(O)C(CCCn1ncc2nc(NCc3ccc(Cl)c(Cl)c3)[nH]c(=O)c21)c1ccccc1 (stereo not drawn) [Compound 201, 5-(5-((3,4-dichlorobenzyl)amino)-7-oxo-6,7-dihydro-1H-pyrazolo[4,3-d]pyrimidin-1-yl)-2-phenylpentanoic acid]",,,,,,,
>64 µg/mL,8,> 64,2,8,2,2,8,,,,,"CN1CC(Cn2ncc3nc(NCc4ccc(Cl)c(Cl)c4)[nH]c(=O)c32)CC1=O (stereo not drawn) [Compound 159, 5-((3,4-dichlorobenzyl)amino)-1-((1-methyl-5-oxopyrrolidin-3-yl)methyl)-1H-pyrazolo[4,3-d]pyrimidin-7(6H)-one]",,,,,,,
>64 µg/mL,32,> 64,8,32,8,8,16,,,,,"O=c1[nH]c(NCc2ccc(Cl)c(Cl)c2)nc2cnn(CC(O)CN3CCOCC3)c12 (stereo not drawn) [Compound 289, 5-[(3,4-dichlorophenyl)methylamino]-1-(2-hydroxy-3-morpholino-propyl)-6H-pyrazolo[4,3-d]pyrimidin-7-one]",,,,,,,
>64 µg/mL,4,> 64,2,4,2,8,16,,,,,"O=c1[nH]c(NCc2ccc(Cl)c(Cl)c2)nc2cnn(Cc3ncco3)c12 [Compound 144, 5-((3,4-Dichlorobenzyl)amino)-1-(oxazol-2-ylmethyl)-1H-pyrazolo[4,3-d]pyrimidin-7(6H)-one]",,,,,,,
>64 µg/mL,8,> 64,4,16,2,8,4,,,,,"Cl.O=C(c1cn[nH]n1)N1CCC(n2ncc3nc(NCc4ccc(Cl)c(Cl)c4)[nH]c(=O)c32)CC1 [Compound 272, 1-(1-(2H-1,2,3-triazole-4-carbonyl)piperidin-4-yl)-5-((3,4-dichlorobenzyl)amino)-1H-pyrazolo[4,3-d]pyrimidin-7(6H)-one hydrochloride]",,,,,,,
>64 µg/mL,,> 64,0.5,2,1,4,2,2,,,,"O=c1[nH]c(NCc2ccc(Cl)c(Cl)c2)nc2c(F)nn(Cc3cocn3)c12 [Compound 306, 5-((3,4-Dichlorobenzyl)amino)-3-fluoro-1-(oxazol-4-ylmethyl)-1H-pyrazolo[4,3-d]pyrimidin-7(6H)-one]",,,,,,,
>64 µg/mL,1,> 64,0.5,2,1,2,2,,,≤ 1,≤ 1,"CC(=O)OCCCCn1ncc2nc(NCc3ccc(Cl)c(Cl)c3)[nH]c(=O)c21 [Compound 90, 4-(5-((3,4-Dichlorobenzyl)amino)-7-oxo-6,7-dihydro-1H-pyrazolo[4,3-d]pyrimidin-1-yl)butyl acetate]",,,,,,,
64 µg/mL,4,> 64,2,4,2,2,4,,,,,"Cc1nnc(CCn2ncc3nc(NCc4ccc(Cl)c(Cl)c4)[nH]c(=O)c32)o1 [Compound 233, 5-((3,4-dichlorobenzyl)amino)-1-(2-(5-methyl-1,3,4-oxadiazol-2-yl)ethyl)-1H-pyrazolo[4,3-d]pyrimidin-7(6H)-one]",,,,,,,
>64 µg/mL,8,> 64,2,8,4,4,4,,,,,"Cl.O=C(c1cc[nH]n1)N1CCC(n2ncc3nc(NCc4ccc(Cl)c(Cl)c4)[nH]c(=O)c32)CC1 [Compound 271, 1-(1-(1H-pyrazole-3-carbonyl)piperidin-4-yl)-5-((3,4-dichlorobenzyl)amino)-1H-pyrazolo[4,3-d]pyrimidin-7(6H)-one hydrochloride]",,,,,,,
>64 µg/mL,8,> 64,2,8,4,4,8,,,,,"COc1cccnc1C(=O)N1CCC(n2ncc3nc(NCc4ccc(Cl)c(Cl)c4)[nH]c(=O)c32)CC1.Cl [Compound 268, 5-((3,4-Dichlorobenzyl)amino)-1-(1-(3-methoxypicolinoyl)piperidin-4-yl)-1H-pyrazolo[4,3-d]pyrimidin-7(6H)-one hydrochloride]",,,,,,,
